According to patent publication US20260137703A1, “2-AMINO-PYRIDO[2,3-D]PYRIMIDIN-7(8H)-ONE AND 7-AMINO-1-PYRIMIDO[4,5-D]PYRIMIDIN-2(1 H)-ONE DERIVATIVES AS EGFR INHIBITORS FOR THE TREATMENT OF CANCER” (Cancer Research Technology Limited, priority 2022, published 2026):

Columns and labels:
[1] = target: T1, Phospho-EGFR (Tyr1068) in H1975 cells (Homo sapiens, UniProt P00533, L858R/T790M); test: HTRF pEGFR/total EGFR in H1975 cells; type: cell-based; conditions: ratio pEGFR/total EGFR, compound 3 hours
T1 construct: host or cells: H1975
T1 sequence (P00533 25-1210 T790M/L858R): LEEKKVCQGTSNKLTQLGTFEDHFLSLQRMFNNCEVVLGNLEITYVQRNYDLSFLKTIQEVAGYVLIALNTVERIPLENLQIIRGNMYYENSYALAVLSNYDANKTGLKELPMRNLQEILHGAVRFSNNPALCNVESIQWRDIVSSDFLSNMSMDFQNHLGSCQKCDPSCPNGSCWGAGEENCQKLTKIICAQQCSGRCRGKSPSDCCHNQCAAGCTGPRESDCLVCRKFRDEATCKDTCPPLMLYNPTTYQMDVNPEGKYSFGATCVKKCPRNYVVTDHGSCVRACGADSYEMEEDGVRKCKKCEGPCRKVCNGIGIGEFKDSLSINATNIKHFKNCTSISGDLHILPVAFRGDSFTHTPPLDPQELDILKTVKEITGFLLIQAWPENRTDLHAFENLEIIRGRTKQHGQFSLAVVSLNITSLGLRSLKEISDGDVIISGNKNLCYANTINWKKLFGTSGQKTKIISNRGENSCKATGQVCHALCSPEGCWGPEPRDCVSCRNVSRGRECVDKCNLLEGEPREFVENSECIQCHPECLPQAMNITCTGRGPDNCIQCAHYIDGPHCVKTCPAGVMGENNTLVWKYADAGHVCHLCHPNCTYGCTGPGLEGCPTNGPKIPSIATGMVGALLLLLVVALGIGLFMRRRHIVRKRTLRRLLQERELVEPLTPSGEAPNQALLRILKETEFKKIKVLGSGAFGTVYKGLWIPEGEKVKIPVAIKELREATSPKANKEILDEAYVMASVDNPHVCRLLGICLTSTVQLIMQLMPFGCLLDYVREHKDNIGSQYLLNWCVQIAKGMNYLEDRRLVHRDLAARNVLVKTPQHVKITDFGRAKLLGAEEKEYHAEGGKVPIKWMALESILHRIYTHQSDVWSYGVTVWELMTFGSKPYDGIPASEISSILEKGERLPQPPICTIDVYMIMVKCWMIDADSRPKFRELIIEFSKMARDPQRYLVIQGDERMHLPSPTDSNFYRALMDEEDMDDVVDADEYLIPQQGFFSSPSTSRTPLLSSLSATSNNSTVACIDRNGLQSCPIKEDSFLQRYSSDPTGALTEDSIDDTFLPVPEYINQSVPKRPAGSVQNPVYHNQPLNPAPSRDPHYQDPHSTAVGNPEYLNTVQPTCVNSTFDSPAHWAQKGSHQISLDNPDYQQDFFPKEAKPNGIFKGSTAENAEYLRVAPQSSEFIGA
Protocol: (§1) H1975 cells (ATCC CRL-5908) were plated at 20,000 cells per well in 96 well plates and placed at 37° C. 5% CO2. Once adhered (after 24 h) cells were treated with compounds dissolved in DMSO at a final concentration of 0.1% DMSO in media. Compounds were diluted in media then added to cells for 3 hours in duplicate. Compound and media were removed from the cells, then 50 ul of HTRF lysis buffer is added (lysis buffer was diluted from 4× stock to 1× in DI water, with 1% blocking agent also added). Cells were lysed on a plate shaker (2000 rpm) for 30 minutes at room temperature. pEGFR expression was monitored using the Cisbio Phospho-EGFR (Tyri068) cellular kit (64EG1PEH). Total EGFR expression was monitored using the Cisbio Total EGFR cellular kit (64NG1PEH) as per manufacturer's instructions. Fluorescence emission was read at two different wavelengths (665 nm and 620 nm) on a PheraStar. Results were calculated as ratio of pEGFR/total EGFR and then percentage of 0 μM control.

[2] = target: T2, Phospho-EGFR (Tyr1068) in H1975 C797S cells (CRISPR-edited EGFR C797S) (Homo sapiens, UniProt P00533, C797S/L858R/T790M); test: HTRF pEGFR/total EGFR in H1975 C797S cells; type: cell-based; conditions: ratio pEGFR/total EGFR, compound 3 hours
T2 construct: host or cells: H1975 C797S (CRISPR-edited)
T2 sequence (P00533 25-1210 T790M/C797S/L858R): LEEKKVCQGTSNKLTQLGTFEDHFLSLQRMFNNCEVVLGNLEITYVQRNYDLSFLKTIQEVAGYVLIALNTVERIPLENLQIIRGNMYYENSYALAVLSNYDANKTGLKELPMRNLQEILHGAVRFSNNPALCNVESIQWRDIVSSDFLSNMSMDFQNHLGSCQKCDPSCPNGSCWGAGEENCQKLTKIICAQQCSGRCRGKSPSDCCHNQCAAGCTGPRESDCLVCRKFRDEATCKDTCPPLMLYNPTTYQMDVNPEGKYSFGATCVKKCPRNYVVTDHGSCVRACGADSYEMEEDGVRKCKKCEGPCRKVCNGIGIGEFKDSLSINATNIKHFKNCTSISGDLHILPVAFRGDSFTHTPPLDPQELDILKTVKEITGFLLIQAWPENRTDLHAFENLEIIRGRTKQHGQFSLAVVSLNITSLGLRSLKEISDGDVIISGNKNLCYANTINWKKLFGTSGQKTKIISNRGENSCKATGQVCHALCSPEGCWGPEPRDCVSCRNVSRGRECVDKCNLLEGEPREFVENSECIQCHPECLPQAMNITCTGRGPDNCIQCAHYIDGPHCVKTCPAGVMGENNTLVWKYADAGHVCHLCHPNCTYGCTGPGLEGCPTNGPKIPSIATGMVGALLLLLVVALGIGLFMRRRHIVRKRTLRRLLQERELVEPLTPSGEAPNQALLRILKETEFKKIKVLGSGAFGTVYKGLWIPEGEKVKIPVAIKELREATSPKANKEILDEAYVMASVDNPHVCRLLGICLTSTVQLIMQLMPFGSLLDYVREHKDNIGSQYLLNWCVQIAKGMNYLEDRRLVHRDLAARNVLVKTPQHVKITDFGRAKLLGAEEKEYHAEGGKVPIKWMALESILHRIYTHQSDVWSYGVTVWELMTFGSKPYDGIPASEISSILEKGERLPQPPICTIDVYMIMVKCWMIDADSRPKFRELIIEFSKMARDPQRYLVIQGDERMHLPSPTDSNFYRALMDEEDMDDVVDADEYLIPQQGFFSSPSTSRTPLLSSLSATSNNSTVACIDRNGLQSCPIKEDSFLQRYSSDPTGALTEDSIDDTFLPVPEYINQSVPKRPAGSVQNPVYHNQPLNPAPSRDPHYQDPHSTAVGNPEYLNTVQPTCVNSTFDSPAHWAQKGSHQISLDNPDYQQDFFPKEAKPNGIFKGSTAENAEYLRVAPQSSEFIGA
Protocol: as §1, with “[…]. Once” for “H1975 cells (ATCC CRL-5908) were plated at 20,000 cells per well in 96 well plates and placed at 37° C. 5% CO2. Once”, “buffer was” for “buffer is”, “Phospho-EGFR (Tyr1068)” for “Phospho-EGFR (Tyri068)”

[3] = target: T3, Phospho-EGFR (Tyr1068) in A431 cells (Homo sapiens, UniProt P00533); test: HTRF pEGFR/total EGFR in A431 cells with EGF stimulation; type: cell-based; conditions: ratio pEGFR/total EGFR, compound 2.5 hours then 100 ng/ml EGF 30 mins
T3 construct: endogenous in cells; host or cells: A431
T3 sequence (P00533 25-1210): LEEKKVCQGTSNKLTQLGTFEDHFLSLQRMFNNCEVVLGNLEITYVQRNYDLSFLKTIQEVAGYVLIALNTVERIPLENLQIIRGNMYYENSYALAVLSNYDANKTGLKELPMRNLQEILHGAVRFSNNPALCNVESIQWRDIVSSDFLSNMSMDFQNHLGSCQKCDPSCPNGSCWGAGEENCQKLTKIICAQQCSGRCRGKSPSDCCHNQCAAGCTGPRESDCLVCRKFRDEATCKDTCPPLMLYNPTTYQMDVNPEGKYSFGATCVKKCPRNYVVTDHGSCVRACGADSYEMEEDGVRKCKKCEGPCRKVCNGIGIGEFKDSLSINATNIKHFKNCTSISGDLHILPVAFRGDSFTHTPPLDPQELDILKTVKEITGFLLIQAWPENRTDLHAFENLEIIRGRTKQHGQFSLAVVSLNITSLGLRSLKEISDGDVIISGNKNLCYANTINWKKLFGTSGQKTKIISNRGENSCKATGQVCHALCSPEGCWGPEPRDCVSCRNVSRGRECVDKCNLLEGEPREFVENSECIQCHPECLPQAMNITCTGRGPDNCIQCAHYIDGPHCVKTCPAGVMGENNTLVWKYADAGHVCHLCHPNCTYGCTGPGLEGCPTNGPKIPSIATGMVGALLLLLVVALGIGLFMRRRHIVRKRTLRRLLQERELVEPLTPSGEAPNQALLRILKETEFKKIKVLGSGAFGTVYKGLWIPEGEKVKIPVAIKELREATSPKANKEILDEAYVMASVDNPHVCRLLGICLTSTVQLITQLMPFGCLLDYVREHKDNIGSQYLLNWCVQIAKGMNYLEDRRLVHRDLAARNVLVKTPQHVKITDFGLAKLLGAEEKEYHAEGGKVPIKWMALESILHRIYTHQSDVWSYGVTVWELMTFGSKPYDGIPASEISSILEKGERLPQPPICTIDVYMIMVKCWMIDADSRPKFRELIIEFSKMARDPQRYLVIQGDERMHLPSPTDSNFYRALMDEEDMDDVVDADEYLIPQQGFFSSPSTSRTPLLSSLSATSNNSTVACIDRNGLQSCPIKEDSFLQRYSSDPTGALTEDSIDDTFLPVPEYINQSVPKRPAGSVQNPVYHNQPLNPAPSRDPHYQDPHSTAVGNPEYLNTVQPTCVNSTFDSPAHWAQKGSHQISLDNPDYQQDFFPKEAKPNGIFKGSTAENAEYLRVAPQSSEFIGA
Protocol: Cells were plated at 20,000 cells per well in 96 well plates and placed at 37° C. 5% CO2. Once adhered (after 24 h) cells were treated with compounds dissolved in DMSO at a final concentration of 0.1% DMSO in media. Compounds were diluted in media then added to cells for 2.5 hours in duplicate, 100 ng/ml EGF (ThermoFisher, PHG0311) was added to all compound treated cells as well as a control for 30 mins. Compound and media were removed from the cells, then 50 ul of HTRF lysis buffer was added (lysis buffer was diluted from 4× stock to 1× in DI water, with 1% blocking agent also added). Cells were lysed on a plate shaker (2000 rpm) for 30 minutes at room temperature. pEGFR expression was monitored using the Cisbio Phospho-EGFR (Tyr1068) cellular kit (64EG1PEH). Total EGFR expression was monitored using the Cisbio Total EGFR cellular kit (64NG1PEH) as per manufacturer's instructions. Fluorescence emission was read at two different wavelengths (665 nm and 620 nm) on a PheraStar. Results were calculated as ratio of pEGFR/total EGFR and then percentage of 0 μM control.

[4] = target: CtermHisTag-mEGFR Wild type (Homo sapiens, UniProt P00533); test: biochemical
CtermHisTag-mEGFR Wild type, sequence (P00533 whole entry): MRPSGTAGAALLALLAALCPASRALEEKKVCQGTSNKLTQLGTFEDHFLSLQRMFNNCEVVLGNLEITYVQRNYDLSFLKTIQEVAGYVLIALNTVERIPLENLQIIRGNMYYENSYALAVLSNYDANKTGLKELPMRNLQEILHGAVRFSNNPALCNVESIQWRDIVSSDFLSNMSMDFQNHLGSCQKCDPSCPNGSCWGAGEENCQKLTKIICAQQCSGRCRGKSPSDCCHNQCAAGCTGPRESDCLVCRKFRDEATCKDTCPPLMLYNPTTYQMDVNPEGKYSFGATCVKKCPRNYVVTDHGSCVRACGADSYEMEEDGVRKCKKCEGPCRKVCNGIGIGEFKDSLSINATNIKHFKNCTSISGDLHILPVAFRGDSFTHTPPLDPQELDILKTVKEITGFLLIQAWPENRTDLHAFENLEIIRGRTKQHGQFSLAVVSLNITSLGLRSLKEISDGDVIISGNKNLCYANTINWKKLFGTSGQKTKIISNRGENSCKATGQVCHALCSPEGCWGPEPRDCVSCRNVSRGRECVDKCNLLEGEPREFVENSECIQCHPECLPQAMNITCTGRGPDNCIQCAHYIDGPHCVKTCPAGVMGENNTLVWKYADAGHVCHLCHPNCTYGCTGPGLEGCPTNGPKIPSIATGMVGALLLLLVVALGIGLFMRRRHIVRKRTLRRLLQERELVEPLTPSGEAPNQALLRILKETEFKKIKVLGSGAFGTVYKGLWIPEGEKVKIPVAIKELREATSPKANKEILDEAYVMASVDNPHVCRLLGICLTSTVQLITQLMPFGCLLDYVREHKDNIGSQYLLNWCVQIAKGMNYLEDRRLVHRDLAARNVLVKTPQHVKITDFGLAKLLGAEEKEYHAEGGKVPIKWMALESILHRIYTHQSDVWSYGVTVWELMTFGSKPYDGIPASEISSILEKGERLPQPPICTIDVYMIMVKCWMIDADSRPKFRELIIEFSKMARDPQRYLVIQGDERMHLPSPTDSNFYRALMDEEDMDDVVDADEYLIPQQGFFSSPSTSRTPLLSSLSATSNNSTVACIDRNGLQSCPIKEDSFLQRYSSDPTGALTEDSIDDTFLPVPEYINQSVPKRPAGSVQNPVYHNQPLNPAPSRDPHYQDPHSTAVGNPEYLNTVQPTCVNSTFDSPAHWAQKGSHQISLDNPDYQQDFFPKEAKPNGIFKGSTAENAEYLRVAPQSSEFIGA

| IC50 [1] [nM] | IC50 [2] [nM] | IC50 [3] [µM] | IC50 [4] [nM] | SMILES |
| --- | --- | --- | --- | --- |
| < 500 | < 500 | 1 to 3 | < 1000 | C#Cc1cc(=O)n(-c2ccccc2)c2nc(Nc3ccc(N4CCCNCC4)cc3)ncc12 [Example 20, 2-{[4-(1,4-Diazepan-1-yl)phenyl]amino}-5-ethynyl-8-phenylpyrido[2,3-d]pyrimidin-7-one] |
| < 500 | < 500 | 1 to 3 | < 1000 | C#Cc1cc(=O)n(-c2ccccc2)c2nc(Nc3ccc(C4CCN(C)CC4)cc3)ncc12 [Example 21, 5-Ethynyl-2-{[4-(1-methylpiperidin-4-yl)phenyl]amino}-8-phenylpyrido[2,3-d]pyrimidin-7-one] |
| < 500 | < 500 | 1 to 3 | < 1000 | C#Cc1cc(=O)n(-c2ccccc2)c2nc(Nc3ccc(N4CCC(N5CCN(C)CC5)CC4)cc3)ncc12 [Example 23, 5-Ethynyl-2-({4-[4-(4-methylpiperazin-1-yl)piperidin-1-yl]phenyl}amino)-8-phenylpyrido[2,3-d]pyrimidin-7-one] |
| < 500 | < 500 | > 3 | < 1000 | C#Cc1cc(=O)n(-c2ccccc2)c2nc(Nc3ccc(N4CCN(C)CC4)c(CC)c3)ncc12 [Example 24, 2-{[3-Ethyl-4-(4-methylpiperazin-1-yl)phenyl]amino}-5-ethynyl-8-phenylpyrido[2,3-d]pyrimidin-7-one] |
| < 500 | < 500 | 1 to 3 | < 1000 | C#Cc1cc(=O)n(-c2ccccc2)c2nc(Nc3ccc(N4CCNC(C)C4)cc3)ncc12 (centres unmarked) [Example 27, 5-Ethynyl-2-{[4-(3-methylpiperazin-1-yl)phenyl]amino}-8-phenylpyrido[2,3-d]pyrimidin-7-one] |
| < 500 | < 500 | 1 to 3 | < 1000 | C#Cc1cc(=O)n(-c2ccccc2)c2nc(Nc3ccc(N4CCC(N5CC(CO)C5)CC4)cc3)ncc12 [Example 28] |
| < 500 | < 500 | > 3 | < 1000 | C#Cc1cc(=O)n(-c2ccccc2)c2nc(Nc3ccc(N4CCC(N5CC(N(C)C)C5)CC4)cc3)ncc12 [Example 29, 2-[(4-{4-[3-(Dimethylamino)azetidin-1-yl]piperidin-1-yl}phenyl)amino]-5-ethynyl-8-phenylpyrido[2,3-d]pyrimidin-7-one] |
| < 500 | 500 to 1000 | > 3 | < 1000 | C#Cc1cc(=O)n(-c2ccccc2)c2nc(Nc3ccc(N4CCN(C)CC4)c(CO)c3)ncc12 [Example 31, 5-Ethynyl-2-{[3-(hydroxymethyl)-4-(4-methylpiperazin-1-yl)phenyl]amino}-8-phenylpyrido[2,3-d]pyrimidin-7-one] |
| < 500 | < 500 | 1 to 3 | < 1000 | C#Cc1cc(=O)n(-c2ccccc2)c2nc(Nc3ccc(N4CCC(N(C)C)CC4)cc3)ncc12 [Example 33, 2-({4-[4-(Dimethylamino)piperidin-1-yl]phenyl}amino)-5-ethynyl-8-phenylpyrido[2,3-d]pyrimidin-7-one] |
| < 500 | 1000 to 3000 | 1 to 3 | < 1000 | C#Cc1cc(=O)n(-c2ccccc2)c2nc(Nc3ccc(N4CCN(C)CC4)cc3)ncc12 [Example 37, 5-Ethynyl-2-((4-(4-methylpiperazin-1-yl)phenyl)amino)-8-phenylpyrido[2,3-d]pyrimidin-7(8H)-one] |
| < 500 | < 500 | > 3 | < 1000 | C#Cc1cc(=O)n(-c2ccccc2)c2nc(Nc3ccc(N4CCNC5(CC5)C4)cc3)ncc12 [Example 38, 2-[(4-{4,7-Diazaspiro[2.5]octan-7-yl}phenyl)amino]-5-ethynyl-8-phenylpyrido[2,3-d]pyrimidin-7-one] |
| < 500 | < 500 | 1 to 3 | < 1000 | C#Cc1cc(=O)n(-c2ccccc2)c2nc(Nc3ccc(N4CCC(N5CC(COC)C5)CC4)cc3)ncc12 [Example 39, 5-Ethynyl-2-[(4-{4-[3-(methoxymethyl)azetidin-1-yl]piperidin-1-yl}phenyl)amino]-8-phenylpyrido[2,3-d]pyrimidin-7-one] |

More lines, now with the values behind:

| SMILES | IC50 [1] [nM] | IC50 [2] [nM] | IC50 [3] [µM] | IC50 [4] [nM] |
| --- | --- | --- | --- | --- |
| C#Cc1cc(=O)n(-c2ccccc2)c2nc(Nc3cnn(C4CCN(C)CC4)c3)ncc12 [Example 19, 5-Ethynyl-2-{[1-(1-methylpiperidin-4-yl)pyrazol-4-yl]amino}-8-phenylpyrido[2,3-d]pyrimidin-7-one] | < 500 | 500 to 1000 | > 3 | < 1000 |
| C#Cc1cc(=O)n(-c2ccccc2)c2nc(Nc3ccc(C4CCNCC4)cc3)ncc12 [Example 22, 5-Ethynyl-8-phenyl-2-{[4-(piperidin-4-yl)phenyl]amino}pyrido[2,3-d]pyrimidin-7-one] | < 500 | < 500 | > 3 | < 1000 |
| C#Cc1cc(=O)n(-c2ccccc2)c2nc(Nc3cnn(C)c3)ncc12 [Example 25, 5-Ethynyl-2-[(1-methylpyrazol-4-yl)amino]-8-phenylpyrido[2,3-d]pyrimidin-7-one] | 1000 to 3000 | 1000 to 3000 | > 3 | < 1000 |
| C#Cc1cc(=O)n(-c2ccccc2)c2nc(Nc3ccc4c(c3)CCNCC4)ncc12 [Example 26, 5-ethynyl-8-phenyl-2-(2,3,4,5-tetrahydro-1H-3-benzazepin-7-ylamino)pyrido [2,3-d]pyrimidin-7-one] | < 500 | < 500 | 1 to 3 | < 1000 |
| C#Cc1cc(=O)n(-c2ccccc2)c2nc(Nc3ccc(N4CCC(N5CC(F)(CO)C5)CC4)cc3)ncc12 [Example 30, 5-Ethynyl-2-[(4-{4-[3-fluoro-3-(hydroxymethyl)azetidin-1-yl]piperidin-1-yl}phenyl)amino]-8-phenylpyrido[2,3-d]pyrimidin-7-one] | < 500 | < 500 | > 3 | < 1000 |
| C#Cc1cc(=O)n(-c2ccccc2)c2nc(Nc3ccc(N(C)CCN(C)C)c(C)c3)ncc12 [Example 32, 2-[(4-{[2-(Dimethylamino)ethyl](methyl)amino}-3-methylphenyl)amino]-5-ethynyl-8-phenylpyrido[2,3-d]pyrimidin-7-one] | < 500 | < 500 | > 3 | < 1000 |
| C#Cc1cc(=O)n(-c2ccccc2)c2nc(Nc3ccc(N(C)CCN(C)C)cc3)ncc12 [Example 34, 2-((4-((2-(Dimethylamino)ethyl)(methyl)amino)phenyl)amino)-5-ethynyl-8-phenylpyrido[2,3-d]pyrimidin-7(8H)-one] | < 500 | > 3000 | > 3 | < 1000 |
| C#Cc1cc(=O)n(-c2ccccc2)c2nc(Nc3ccc(N(C)C(=O)CCOC)cc3OC)ncc12 [Example 36, N-(4-((5-Ethynyl-7-oxo-8-phenyl-7,8-dihydropyrido[2,3-d]pyrimidin-2-yl)amino)-3-methoxyphenyl)-3-methoxy-N-methylpropanamide] | 1000 to 3000 | 1000 to 3000 | > 3 | 1000 to 10000 |
